Data on eight compounds can be found in ChEMBL document CHEMBL1141914.

The target in the test is T1, Prostaglandin G/H synthase 1 (Ovis aries) (UniProt P05979).
T1 sequence (whole entry): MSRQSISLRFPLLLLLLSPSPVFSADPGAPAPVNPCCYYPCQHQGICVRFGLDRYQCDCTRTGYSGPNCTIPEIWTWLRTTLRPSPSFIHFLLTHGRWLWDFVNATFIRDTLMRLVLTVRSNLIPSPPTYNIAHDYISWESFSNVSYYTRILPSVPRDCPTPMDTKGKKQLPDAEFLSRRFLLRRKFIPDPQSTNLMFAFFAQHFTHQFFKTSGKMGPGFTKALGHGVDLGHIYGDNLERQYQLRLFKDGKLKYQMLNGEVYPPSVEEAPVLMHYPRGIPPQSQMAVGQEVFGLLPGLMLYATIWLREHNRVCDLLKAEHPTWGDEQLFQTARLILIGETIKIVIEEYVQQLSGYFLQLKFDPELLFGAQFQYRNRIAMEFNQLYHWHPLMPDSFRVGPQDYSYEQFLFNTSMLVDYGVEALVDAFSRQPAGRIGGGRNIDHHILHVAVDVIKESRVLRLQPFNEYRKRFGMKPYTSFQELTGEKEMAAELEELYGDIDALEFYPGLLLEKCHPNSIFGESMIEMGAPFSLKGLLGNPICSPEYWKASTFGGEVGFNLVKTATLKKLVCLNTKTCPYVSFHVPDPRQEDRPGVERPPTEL
In words: Percent inhibition against Prostaglandin G/H synthase 1 from ram seminal vesicles at 100 uM.

What is called inhibition is the percentage by which the read-out fell short of the control. Low readings indicate a weak effect, high ones a strong effect. As to `O=C(/C=C/c1ccc(O)cc1)CC(=O)/C=C/c1ccc(O)cc1`, the inhibition came out at 41.7%.

As to `COc1cc(/C=C/c2cc(/C=C/c3ccc(O)cc3)on2)ccc1O`, the inhibition amounted to 47.4%.

Compound `Oc1ccc(/C=C/c2cc(/C=C/c3ccc(O)cc3)[nH]n2)cc1` displayed an inhibition of 44.4%.

Consider `COc1cc(/C=C/C(O)=C/C(=O)/C=C/c2ccc(O)cc2)ccc1O`, for which the inhibition amounted to 67.8%.

Consider `COc1cc(/C=C/c2cc(/C=C/c3ccc(O)c(OC)c3)on2)ccc1O`, for which the inhibition was found to be 80.8%.

On to `COc1cc(/C=C/c2cc(/C=C/c3ccc(O)cc3)[nH]n2)ccc1O`, for which the inhibition worked out at 73.9%.

Consider `COc1cc(/C=C/C(=O)CC(=O)/C=C/c2ccc(O)c(OC)c2)ccc1O`, for which the inhibition was 80.5%.

Compound `COc1cc(/C=C/c2cc(/C=C/c3ccc(O)c(OC)c3)[nH]n2)ccc1O` displayed an inhibition of 87%.
